In PMC10460087, “Structure Activity Relationship and Molecular Docking of Some Quinazolines Bearing Sulfamerazine Moiety as New 3CLpro, cPLA2, sPLA2 Inhibitors” (Molecules, 2023):
Read-outs that look alike come from different tables or passages of the source. Marks after values point to notes of the source that are not given here.

What was measured:
cPLA2 [1] = experiment: biochemical; design: species or system bee
Target sequence in this assay (P00630 34-167 limits assumed): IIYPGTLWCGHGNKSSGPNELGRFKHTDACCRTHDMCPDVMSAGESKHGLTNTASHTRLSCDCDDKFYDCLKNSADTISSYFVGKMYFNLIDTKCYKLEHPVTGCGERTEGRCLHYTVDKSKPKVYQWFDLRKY

NO = type: cell-based, mouse; details: for decrease in NO level: compared to LPS-exposed cells
sPLA2 [2] = type: cell-based, mouse; details: for decrease in sPLA2 level: compared to LPS-exposed cells
cPLA2 [3] = type: cell-based, mouse; details: for decrease in cPLA2 level: compared to LPS-exposed cells
TNF-α = type: cell-based, mouse; details: for decrease in TNF-α level: compared to LPS-exposed cells
IL-8 = IL-8 level in LPS-treated isolated lung cells (ELISA); type: cell-based, mouse; details: for decrease in IL-8 level: compared to LPS-exposed cells
sPLA2 [4] = experiment: sPLA2 enzyme inhibition assay (Cayman Chemical kit); type: biochemical; details: mean ± SD; tested 0–17.5 µM
Protocol: The sPLA2 screening assay was carried out according to the manufacturer’s protocol (Cayman Chemical). Briefly, 10 μL of sPLA2 was mixed with 10 μL of dimethyl sulfoxide. In a separate experiment, 10 µL of sPLA2 was added to 10 µL standard sPLA2 inhibitor (thioetheramide, 12.5 µM) and 200 µL substrate solution (diheptanoyl thiol). […] In a separate experiment, 10 μL of assay buffer was mixed with 10 μL of dimethyl sulfoxide and 200 µL of substrate solution. The reaction was initiated by the addition 10 µL of DTNB to all samples. The plate was carefully vortexed for 10 s, then covered with a plate cover and incubated for 15 min at 25 °C. Absorbance was recorded at […] using a plate reader and the IC50 was determined for the synthesized compounds (4–6 and 12) as well as the standard drugs.

SARS-CoV-2 main protease = SARS-CoV-2 main protease (Severe acute respiratory syndrome coronavirus 2, UniProt P0DTD1); experiment: biochemical; details: mean ± SD; tested 0–17.5 µM
cPLA2 (bee venom PLA2) = cPLA2 (bee venom PLA2) (Apis mellifera, UniProt P00630); experiment: biochemical
Chain of cPLA2 (bee venom PLA2) (P00630 34-167 limits assumed): as above

[5] = LPS 1 μg/mL + higher dose: 4 2.84, 5 3.68, 6 1.18, 12 5.47, baicalein 3.88, ivermectin 149.39 µM
[6] = LPS 1 μg/mL + lower dose: 4 1.44, 5 2.08, 6 0.5, 12 2.39, baicalein 0.89, ivermectin 131.01 µM
[7] = higher dose: 4 2.84, 5 3.68, 6 1.18, 12 5.47, baicalein 3.88, ivermectin 149.39 µM
[8] = lower dose: 4 1.44, 5 2.08, 6 0.5, 12 2.39, baicalein 0.89, ivermectin 131.01 µM

| Molecule | NO level (NO; [5]) | NO level (NO; [6]) | decrease in NO level (NO; [7]) [%] | decrease in NO level (NO; [8]) [%] | sPLA2 level (sPLA2 [2]; [5]) | sPLA2 level (sPLA2 [2]; [6]) | decrease in sPLA2 level (sPLA2 [2]; [7]) [%] | decrease in sPLA2 level (sPLA2 [2]; [8]) [%] | cPLA2 level (cPLA2 [3]; [5]) | cPLA2 level (cPLA2 [3]; [6]) | decrease in cPLA2 level (cPLA2 [3]; [7]) [%] | decrease in cPLA2 level (cPLA2 [3]; [8]) [%] | TNF-α level (TNF-α; [5]) | TNF-α level (TNF-α; [6]) | decrease in TNF-α level (TNF-α; [7]) [%] | decrease in TNF-α level (TNF-α; [8]) [%] | IL-8 level (IL-8; [5]) | IL-8 level (IL-8; [6]) | decrease in IL-8 level (IL-8; [7]) [%] | decrease in IL-8 level (IL-8; [8]) [%] | other results |
| --- | --- | --- | --- | --- | --- | --- | --- | --- | --- | --- | --- | --- | --- | --- | --- | --- | --- | --- | --- | --- | --- |
| O=c1cc(-c2ccccc2)oc2cc(O)c(O)c(O)c12 [Baicalein, reference compound] | 20.53 ± 1.89 ^c µmol/L | 32.01 ± 4.81 ^f µmol/L | 70.07 | 53.33 | 24.77 ± 2.73 ^c pg/mL | 54.27 ± 3.46 ^h pg/mL | 80.88 | 58.11 | 616.34 ± 28.34 ^c dpm/mL | 903.43 ± 35.71 ^g dpm/mL | 78.13 | 67.33 | 431.21 ± 32.88 ^c pg/mL | 639.55 ± 37.84 ^g pg/mL | 56.01 | 34.76 | 1.42 ± 0.13 ^c ng/mL | 2.06 ± 0.23 ^g ng/mL | 75.26 | 64.11 | IC50 (cPLA2 [1]): 3880 ± 13 nM; IC50 (sPLA2 [4]): 890 ± 41 nM |
| Cc1ccnc(NS(=O)(=O)c2ccc(Nc3nc4ccccc4c(=O)n3N)cc2)n1 [Compound 4] | 25.18 ± 2.98 ^d µmol/L | 37.27 ± 3.00 ^c µmol/L | 63.29 | 45.66 | 29.10 ± 2.52 ^d pg/mL | 57.93 ± 2.92 ^i pg/mL | 77.54 | 55.29 | 671.05 ± 29.17 ^d dpm/mL | 1077.77 ± 68.61 ^i dpm/mL | 76.19 | 61.75 | 481.36 ± 39.63 ^d pg/mL | 654.20 ± 22.28 ^h pg/mL | 50.90 | 33.36 | 2.17 ± 0.07 ^d ng/mL | 2.55 ± 0.26 ^c ng/mL | 62.20 | 55.57 | IC50 (cPLA2 [1]): 1440 ± 9 nM; IC50 (SARS-CoV-2 main protease): 2012 ± 4 nM; IC50 (sPLA2 [4]): 2840 ± 26 nM |
| COc1cc(C=Nn2c(Nc3ccc(S(=O)(=O)Nc4nccc(C)n4)cc3)nc3ccccc3c2=O)ccc1O [Compound 5] | 29.37 ± 2.21 ^f µmol/L | 45.75 ± 2.87 ^g µmol/L | 57.18 | 33.29 | 34.17 ± 1.73 ^e pg/mL | 72.13 ± 3.94 ^k pg/mL | 73.63 | 44.33 | 719.32 ± 37.15 ^e dpm/mL | 1258.99 ± 35.57 ^k dpm/mL | 74.48 | 55.32 | 524.98 ± 19.11 ^e pg/mL | 671.91 ± 23.11 ^i pg/mL | 46.44 | 31.26 | 2.40 ±0.09 ^e ng/mL | 2.74 ± 0.32 ^c ng/mL | 58.19 | 52.26 | IC50 (cPLA2 [1]): 2080 ± 16 nM; IC50 (SARS-CoV-2 main protease): 3680 ± 2350 nM; IC50 (sPLA2 [4]): 2730 ± 8 nM |
| Cc1ccnc(NS(=O)(=O)c2ccc(N3CC(=O)Nn4c3nc3ccccc3c4=O)cc2)n1 [Compound 6] | 19.02 ± 1.5 ^b µmol/L | 24.67 ± 2.70 ^e µmol/L | 72.27 | 64.03 | 18.29 ± 2.35 ^b pg/mL | 43.44 ± 2.74 ^g pg/mL | 85.88 | 66.47 | 536.93 ± 23.50 ^b dpm/mL | 830.11 ± 34.00 ^f dpm/mL | 80.94 | 70.54 | 424.25 ± 36.86 ^f pg/mL | 582.31 ± 52.25 ^e pg/mL | 56.72 | 40.59 | 1.17 ± 0.06 ^b ng/mL | 1.79 ± 0.14 ^d ng/mL | 79.62 | 68.82 | IC50 (cPLA2 [1]): 500 ± 8 nM; IC50 (SARS-CoV-2 main protease): 1180 ± 25 nM; IC50 (sPLA2 [4]): 1020 ± 39 nM |
| CCOC(=O)c1nn2c(=O)c3ccccc3nc2n1-c1ccc(S(=O)(=O)Nc2nccc(C)n2)cc1 [Compound 12] | 30.94 ± 3.76 ^f µmol/L | 50.36 ± 3.96 ^h µmol/L | 54.89 | 26.57 | 40.61 ± 4.19 ^f pg/mL | 85.23 ± 6.51 ^l pg/mL | 68.66 | 34.22 | 722.24 ± 30.40 ^e dpm/mL | 1348.21 ± 50.26 dpm/mL | 74.37 | 52.15 | 551.52 ± 24.65 ^f pg/mL | 748.98 ± 31.22 ^j pg/mL | 43.75 | 23.59 | 3.21 ± 0.21 ^f ng/mL | 3.84 ± 0.29 ^g ng/mL | 44.08 | 33.10 | IC50 (cPLA2 [1]): 2390 ± 46 nM; IC50 (SARS-CoV-2 main protease): 5470 ± 18 nM; IC50 (sPLA2 [4]): 4450 ± 7 nM |
| Ivermectin [reference compound] | 50.74 ± 3.34 ^h µmol/L | 62.01 ± 4.81 ^i µmol/L | 26.02 | 9.59 | 62.31 ± 1.41 ^j pg/mL | 106.13 ± 9.81 ^m pg/mL | 51.41 | 18.09 | 1002.65 ± 90.98 ^h dpm/mL | 1172.50 ± 72.55 ^j dpm/mL | 64.41 | 58.39 | 714.29 ± 28.09 ^g pg/mL | 870.22 ± 40.62 ^k pg/mL | 27.13 | 11.23 | 3.10 ± 0.1 ^f ng/mL | 3.77 ± 0.62 ^g ng/mL | 45.99 | 34.32 | IC50 (cPLA2 (bee venom PLA2)): 138000 ± 1540 nM; IC50 (SARS-CoV-2 main protease): 42400 ± 2500 nM; IC50 (sPLA2 [4]): 110000 ± 3270 nM |
